One may read the melting point as the temperature, or range, at which the solid turns liquid. As to `CC(C)(C)C(=O)Nc1ncnc2c1nc(-n1cccn1)n2Cc1ccccc1` [Compound No. 1, N-(9-Benzyl-8-pyrazol-1-yl-9H-purin-6-yl)-2,2-dimethylpropionamide], the melting point was 124 to 125 °C.

`C=CCNC(=O)Nc1ncnc2c1nc(-n1cccn1)n2Cc1ccccc1` [Compound No. 12, 1-Allyl-3-(9-benzyl-8-pyrazol-1-yl-9H-purin-6-yl)-urea] returned a melting point of 189.5 to 199 °C.

The values are drawn from patent US20080280926A1, “Phosphodiesterase Inhibitors” (priority 2003, published 2008).
